Laboratory results published in patent US11090364B2, “Conjugates of a pharmaceutical agent and a moiety capable of binding to a glucose sensing protein” (SANOFI, priority 2016, dated 2021).

Key:
erythrocytes = assay: Erythrocyte dialysis assay (6-NBD-Glc, Rapid Equilibrium Dialysis); assay type: binding, rat; settings: for Fluorescence intensity in buffer compartiment, 1:1 Dilution k^off / Fluorescence intensity in buffer compartiment, 1:1 Dilution k^on: 6-NBD-Glc 25 μM; for Fluorescence intensity in buffer compartiment, 6-NBD-Glc [50 μM]: absence of glucose
Description: 3. Erythrocyte Dialysis Assay
Here 6-NBD-Glc or alternatively 2-NBD-Glc was used in dialysis based competition experiments.
Freshly isolated heparinized rat blood samples were immideately diluted (1:5) in PBS buffer to generate a stable stock solution. This stock solution was further diluted (1:1 or 1:3) for the following dialysis experiments in Rapid Equilibrium Dialysis (RED) devices (Thermo Scientific Pierce).
The aforementioned stock solution was further diluted (1:1 or 1:3 respectively) and added to the dialysis compartiment of a RED device. In parallel stock solution was diluted (1:1) with buffer containing 6 NBD Glc (25 μM).
Dialyses was started by addition of 6 NBD Glc (25 μM) in PBS Buffer (k^on) or pure PBS buffer (ko^off) respectively into the buffer compartiment. Aliquots (20 μl) were taken after defined time intervals from the buffer compartiment and fluorescence was measured in a UV plate reader (Thermovarioskan, Thermo).
As a control, free diffusion of 6-NBD-Glc (25 μM) in PBS buffer vs pure buffer was measured.
Glucose dependency was determined following the protocol described above, comparing the following solutions: 6 NBD-Glc (100 μM), 6 NBD-Glucose (100 μM)+Glucose 20 mM. Data are shown in the next table
Example 102 was investigated in a competition experiment following the same protocol using a 6-NBD-Glc solution (100 μM) in comparison to 6 NBD-Glucose (100 μM)+Example 102 (50 μM).

HepG2 cells = assay: HepG2 assay: 14C 2-deoxy-D-glucose transport into HepG2 cells; assay type: cell-based; settings: Homo sapiens, test compound 100 μM
Description: For measurement of ^14C 2-deoxy-D-glucose transport into HepG2 cells, cells were seeded in collagen treated 96-well plates (Cytostar-T Plates Perkin Elmer, 40.000 cells/200 μ/well) in medium complete (MEM W/GLUT-I, EARLES (Gibco #41090) /NEAA/PS/10% FCS) and grown for 48 hours. After starvation for 2 hours with MEM W/GLUT-I, EARLES (Gibco #41090)/NEAA/no serum 100 μl/well and washing twice with 200 μL KRB buffer, cells were stimulated in a dose dependent manner by adding 20 μL of test compound dilution 0-750 μM (7.5 times higher concentration than final) or 20 μL of 188 μM Cytochalasin B solution as negative control, to 80 μL KRB buffer and incubated for 30 minutes. After compound stimulation, the transport of ^14C 2-deoxy-D-glucose was started by adding of 50 μL ^14C 2-deoxy-D-glucose solution (250 μM 2-deoxy-D-glucose cold and 15 μM ^14C 2-deoxy-D-glucose 0.13 μCi/well) for 20 minutes. Transport was stopped by adding 50 μL/well 40 μM Cytochalasin B solution. Plates were measured in a 96-well Wallac Microbeta device. The cpm (counts per minute) values were used to determine the % inhibition values for the test compounds within each experiment, which then are averaged over the number of experiments performed.

O=[N+]([O-])c1ccc(NC[C@H]2OC(O)[C@H](O)[C@@H](O)[C@@H]2O)c2nonc12 (stereo partly shown) [Example 6-NBD-Glc, 6-(N-(7-Nitrobenz-2-oxa-1,3-diazol-4-yl)amino)-6-Deoxyglucose]
Fluorescence intensity in buffer compartiment, 1:1 Dilution k^off (erythrocytes; 0 min): 0 AU
Fluorescence intensity in buffer compartiment, 1:1 Dilution k^on (erythrocytes; 0 min): 55 AU
Fluorescence intensity in buffer compartiment, NBD-Glc [50 μM] + Glc [10 mM] (erythrocytes; 0 min): 0 AU
Fluorescence intensity in buffer compartiment, 6-NBD-Glc [50 μM] (erythrocytes; 0 min): 0 AU
Fluorescence intensity in buffer compartiment, NBD-Glc [50 μM] + Glc [10 mM] (erythrocytes; 15 min): 7.2 AU
Fluorescence intensity in buffer compartiment, 6-NBD-Glc [50 μM] (erythrocytes; 15 min): 7.5 AU
Fluorescence intensity in buffer compartiment, 1:1 Dilution k^off (erythrocytes; 30 min): 3.4 AU
Fluorescence intensity in buffer compartiment, 1:1 Dilution k^on (erythrocytes; 30 min): 50.6 AU
Fluorescence intensity in buffer compartiment, NBD-Glc [50 μM] + Glc [10 mM] (erythrocytes; 30 min): 11.9 AU
Fluorescence intensity in buffer compartiment, 6-NBD-Glc [50 μM] (erythrocytes; 30 min): 10.6 AU
Fluorescence intensity in buffer compartiment, 1:1 Dilution k^off (erythrocytes; 60 min): 6.5 AU
Fluorescence intensity in buffer compartiment, 1:1 Dilution k^on (erythrocytes; 60 min): 45.1 AU
Fluorescence intensity in buffer compartiment, NBD-Glc [50 μM] + Glc [10 mM] (erythrocytes; 60 min): 17 AU
Fluorescence intensity in buffer compartiment, 6-NBD-Glc [50 μM] (erythrocytes; 60 min): 11.1 AU
Fluorescence intensity in buffer compartiment, 1:1 Dilution k^off (erythrocytes; 90 min): 12 AU
Fluorescence intensity in buffer compartiment, 1:1 Dilution k^on (erythrocytes; 90 min): 33 AU
Fluorescence intensity in buffer compartiment, NBD-Glc [50 μM] + Glc [10 mM] (erythrocytes; 90 min): 18.5 AU
Fluorescence intensity in buffer compartiment, 6-NBD-Glc [50 μM] (erythrocytes; 90 min): 14.9 AU
Fluorescence intensity in buffer compartiment, 1:1 Dilution k^off (erythrocytes; 120 min): 16.1 AU
Fluorescence intensity in buffer compartiment, 1:1 Dilution k^on (erythrocytes; 120 min): 34 AU
Fluorescence intensity in buffer compartiment, NBD-Glc [50 μM] + Glc [10 mM] (erythrocytes; 120 min): 20.3 AU
Fluorescence intensity in buffer compartiment, 6-NBD-Glc [50 μM] (erythrocytes; 120 min): 15.8 AU
Fluorescence intensity in buffer compartiment, NBD-Glc [50 μM] + Glc [10 mM] (erythrocytes; 180 min): 22.5 AU
Fluorescence intensity in buffer compartiment, 6-NBD-Glc [50 μM] (erythrocytes; 180 min): 16 AU
Free concentration of 6-NBD-Glc in presence of Glc [10 mM] (erythrocytes; Glc 10 mM versus absence of glucose): increased

OC[C@H]1OC(O)[C@H](n2cc(-c3ccccc3)nn2)[C@@H](O)[C@@H]1O (stereo partly drawn) [Example 55, (3R,4R,5S,6R)-6-(Hydroxymethyl)-3-(4-phenyltriazol-1-yl)tetrahydropyran-2,4,5-triol]
inhibition at 100 µM (HepG2 cells): 12.4%

Cc1ccc(-c2cn([C@H]3C(O)O[C@H](CO)[C@@H](O)[C@@H]3O)nn2)cc1 (stereo partly drawn) [Example 56, (3R,4R,5S,6R)-6-(Hydroxymethyl)-3-[4-(p-tolyl)triazol-1-yl]tetrahydropyran-2,4,5-triol]
inhibition at 100 µM (HepG2 cells): 21.1%

OC[C@H]1OC(O)[C@H](n2cc(CCCc3ccccc3)nn2)[C@@H](O)[C@@H]1O (stereo partly drawn) [Example 57, (3R,4R,5S,6R)-6-(Hydroxymethyl)-3-[4-(3-phenylpropyl)triazol-1-yl]tetrahydropyran-2,4,5-triol]
inhibition at 100 µM (HepG2 cells): 24.1%

COC(=O)c1ccc(-c2cn([C@H]3C(O)O[C@H](CO)[C@@H](O)[C@@H]3O)nn2)cc1 (stereo partly drawn) [Example 58, Methyl 4-[1-[(3R,4R,5S,6R)-2,4,5-trihydroxy-6-(hydroxymethyl)tetrahydropyran-3-yl]triazol-4-yl]benzoate]
inhibition at 100 µM (HepG2 cells): 20%

CN(Cc1ccccc1)Cc1cn([C@H]2C(O)O[C@H](CO)[C@@H](O)[C@@H]2O)nn1 (stereo partly drawn) [Example 59, (3R,4R,5S,6R)-3-[4-[[Benzyl(methyl)amino]methyl]triazol-1-yl]-6-(hydroxymethyl)tetrahydropyran-2,4,5-triol]
inhibition at 100 µM (HepG2 cells): 7.56%

COc1ccc2cc(-c3cn([C@H]4C(O)O[C@H](CO)[C@@H](O)[C@@H]4O)nn3)ccc2c1 (stereo partly drawn) [Example 60, (3R,4R,5S,6R)-6-(Hydroxymethyl)-3-[4-(6-methoxy-2-naphthyl)triazol-1-yl]tetrahydropyran-2,4,5-triol]
inhibition at 100 µM (HepG2 cells): 14.8%

Cc1ccc(-c2nc(C)c(-c3cn([C@H]4C(O)O[C@H](CO)[C@@H](O)[C@@H]4O)nn3)c(Cl)n2)cc1 (stereo partly drawn) [Example 61, (3R,4R,5S,6R)-3-[4-[4-Chloro-6-methyl-2-(p-tolyl)pyrimidin-5-yl]triazol-1-yl]-6-(hydroxymethyl)tetrahydropyran-2,4,5-triol]
inhibition at 100 µM (HepG2 cells): 9.42%

O=[N+]([O-])c1ccc(NCc2cn([C@H]3C(O)O[C@H](CO)[C@@H](O)[C@@H]3O)nn2)c2nonc12 (stereo partly drawn) [Example 63, (3R,4R,5S,6R)-6-(Hydroxymethyl)-3-[4-[[(4-nitro-2,1,3-benzoxadiazol-7-yl)amino]methyl]triazol-1-yl]tetrahydropyran-2,4,5-triol]
inhibition at 100 µM (HepG2 cells): 37.6%

OC[C@H]1OC(O)[C@H](n2cc(CC3CCCCC3)nn2)[C@@H](O)[C@@H]1O (stereo partly drawn) [Example 64, (3R,4R,5S,6R)-3-[4-(Cyclohexylmethyl)triazol-1-yl]-6-(hydroxymethyl)tetrahydropyran-2,4,5-triol]
inhibition at 100 µM (HepG2 cells): 8.86%

CCCCCc1cn([C@H]2C(O)O[C@H](CO)[C@@H](O)[C@@H]2O)nn1 (stereo partly drawn) [Example 65, (3R,4R,5S,6R)-6-(Hydroxymethyl)-3-(4-pentyltriazol-1-yl)tetrahydropyran-2,4,5-triol]
inhibition at 100 µM (HepG2 cells): 7.79%

OC[C@H]1OC(O)[C@H](n2cc(CCCCl)nn2)[C@@H](O)[C@@H]1O (stereo partly drawn) [Example 66, (3R,4R,5S,6R)-3-[4-(3-Chloropropyl)triazol-1-yl]-6-(hydroxymethyl)tetrahydropyran-2,4,5-triol]
inhibition at 100 µM (HepG2 cells): 5.12%

O=[N+]([O-])c1ccc(CCCCCCCc2cn([C@H]3C(O)O[C@H](CO)[C@@H](O)[C@@H]3O)nn2)c2nonc12 (stereo partly drawn) [Example 67, (3R,4R,5S,6R)-6-(Hydroxymethyl)-3-[4-[7-(4-nitro-2,1,3-benzoxadiazol-7-yl)heptyl]triazol-1-yl]tetrahydropyran-2,4,5-triol]
inhibition at 100 µM (HepG2 cells): 25.8%

OC1O[C@H](Cn2cc(-c3ccccc3)nn2)[C@@H](O)[C@H](O)[C@H]1O (stereo partly drawn) [Example 69, (3R,4S,5S,6R)-6-[(4-Phenyltriazol-1-yl)methyl]tetrahydropyran-2,3,4,5-tetrol]
inhibition at 100 µM (HepG2 cells): 6.14%

O=[N+]([O-])c1ccc(NCc2cn(C[C@H]3OC(O)[C@H](O)[C@@H](O)[C@@H]3O)nn2)c2nonc12 (stereo partly drawn) [Example 75, (3R,4S,5S,6R)-6-[[4-[[(4-Nitro-2,1,3-benzoxadiazol-7-yl)amino]methyl]triazol-1-yl]methyl]tetrahydropyran-2,3,4,5-tetrol]
inhibition at 100 µM (HepG2 cells): 31.2%

O=[N+]([O-])c1ccc(NCc2cn([C@@H]3O[C@H](CO)[C@@H](O)[C@H](O)[C@H]3O)nn2)c2nonc12 [Example 88, (2R,3S,4S,5R,6R)-2-(Hydroxymethyl)-6-[4-[[(4-nitro-2,1,3-benzoxadiazol-7-yl)amino]methyl]triazol-1-yl]tetrahydropyran-3,4,5-triol]
inhibition at 100 µM (HepG2 cells): 31.4%

O=[N+]([O-])c1ccc(NCCCCCCc2cn([C@@H]3O[C@H](CO)[C@@H](O)[C@H](O)[C@H]3O)nn2)c2nonc12 [Example 92, (2R,3S,4S,5R,6R)-2-(Hydroxymethyl)-6-[4-[6-[(4-nitro-2,1,3-benzoxadiazol-7-yl)amino]hexyl]triazol-1-yl]tetrahydropyran-3,4,5-triol]
inhibition at 100 µM (HepG2 cells): 23.1%

OC1O[C@H](CN2CCN(c3ccc(Cl)cc3)CC2)[C@H](O)[C@H](O)[C@H]1O (stereo partly drawn) [Example 102, (3R,4S,5R,6R)-6-[[4-(4-Chlorophenyl)piperazin-1-yl]methyl]tetrahydropyran-2,3,4,5-tetrol]
Fluorescence intensity of 6-NBD-Glc in competition with Example 102 [25 μM] (erythrocytes; 0 min, competition with 6-NBD-Glc): 0 AU
Fluorescence intensity of 6-NBD-Glc in competition with Example 102 [25 μM] (erythrocytes; 15 min, competition with 6-NBD-Glc): 4.9 AU
Fluorescence intensity of 6-NBD-Glc in competition with Example 102 [25 μM] (erythrocytes; 30 min, competition with 6-NBD-Glc): 11.1 AU
Fluorescence intensity of 6-NBD-Glc in competition with Example 102 [25 μM] (erythrocytes; 60 min, competition with 6-NBD-Glc): 12.5 AU
Fluorescence intensity of 6-NBD-Glc in competition with Example 102 [25 μM] (erythrocytes; 90 min, competition with 6-NBD-Glc): 19.3 AU
Fluorescence intensity of 6-NBD-Glc in competition with Example 102 [25 μM] (erythrocytes; 120 min, competition with 6-NBD-Glc): 25.1 AU
Fluorescence intensity of 6-NBD-Glc in competition with Example 102 [25 μM] (erythrocytes; 180 min, competition with 6-NBD-Glc): 32.1 AU
Slope of fluorescence intensity vs time in comparison to control (erythrocytes; competition with 6-NBD-Glc): clear increase in the slope
